Values joined by “and” are separate entries in the source; they are usually repeats but may differ in a detail not shown here. Equal entries are not always repeated. Numbered stars: 1 amine (or outer) side, 2 acyl side, 3 side chain; on linkers, the order of the positions; unused ones are H or OH. Side chains are listed from the residue outwards. Peptide text beside a SMILES is read from it. * marks the point of attachment. γGlu = O=C(O)[C@H](CCC(=O)[*:2])N[*:1]; Palmitoyl = CCCCCCCCCCCCCCCC(=O)*; Ahx = NCCCCCC(=O)O
Legend:
Test in all cases: cAMP activity assay in assay medium (assay 1)
Type in all cases: cell-based
Human GLP1R = Human GLP1R (Homo sapiens, UniProt P43220); set-up: expressed in transfected cells; conditions: assay medium; Table 4; read-out: hGLP1R EC50
Chain of Human GLP1R (P43220 24-463): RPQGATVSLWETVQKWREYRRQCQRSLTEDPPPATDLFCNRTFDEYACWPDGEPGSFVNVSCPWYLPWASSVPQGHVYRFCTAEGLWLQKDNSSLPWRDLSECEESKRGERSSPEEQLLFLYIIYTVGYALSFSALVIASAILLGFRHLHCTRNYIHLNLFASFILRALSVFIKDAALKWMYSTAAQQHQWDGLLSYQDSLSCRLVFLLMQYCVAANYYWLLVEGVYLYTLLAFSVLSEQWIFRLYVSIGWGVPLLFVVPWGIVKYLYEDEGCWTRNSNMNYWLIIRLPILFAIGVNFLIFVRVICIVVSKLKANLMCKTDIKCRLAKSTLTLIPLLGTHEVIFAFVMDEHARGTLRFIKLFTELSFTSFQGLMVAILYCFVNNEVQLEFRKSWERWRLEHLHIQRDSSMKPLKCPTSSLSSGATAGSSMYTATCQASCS
Description: (§1) Biological Activity of Peptides in Cell-Based cAMP Activity Assay (Assay 1):
(§2) All sample dilutions were made in duplicate.

Human GlucR = target: T1, Human GlucR (Homo sapiens, UniProt P47871); conditions: assay medium; Table 4; read-out: hGlucR EC50
T1 construct: expressed in transfected cells
T1 sequence (P47871 26-477): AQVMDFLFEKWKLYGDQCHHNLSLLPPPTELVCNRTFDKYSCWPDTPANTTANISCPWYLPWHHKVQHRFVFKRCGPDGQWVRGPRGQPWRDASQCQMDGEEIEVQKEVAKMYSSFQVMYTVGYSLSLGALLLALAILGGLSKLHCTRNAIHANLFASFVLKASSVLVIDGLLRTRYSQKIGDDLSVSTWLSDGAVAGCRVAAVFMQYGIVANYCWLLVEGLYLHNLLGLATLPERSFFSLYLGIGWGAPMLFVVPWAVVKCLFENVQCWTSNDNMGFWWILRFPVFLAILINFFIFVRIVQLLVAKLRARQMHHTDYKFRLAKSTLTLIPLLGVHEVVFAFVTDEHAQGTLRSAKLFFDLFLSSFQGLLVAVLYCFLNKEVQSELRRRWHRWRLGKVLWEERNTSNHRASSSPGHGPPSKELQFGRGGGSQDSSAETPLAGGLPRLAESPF
Description: as §1, §2

Human GIPr = target: T2, Human GIPr (Homo sapiens, UniProt P48546); conditions: assay medium; Table 4; read-out: hGIPR EC50
T2 construct: expressed in transfected cells
T2 sequence (P48546 22-466): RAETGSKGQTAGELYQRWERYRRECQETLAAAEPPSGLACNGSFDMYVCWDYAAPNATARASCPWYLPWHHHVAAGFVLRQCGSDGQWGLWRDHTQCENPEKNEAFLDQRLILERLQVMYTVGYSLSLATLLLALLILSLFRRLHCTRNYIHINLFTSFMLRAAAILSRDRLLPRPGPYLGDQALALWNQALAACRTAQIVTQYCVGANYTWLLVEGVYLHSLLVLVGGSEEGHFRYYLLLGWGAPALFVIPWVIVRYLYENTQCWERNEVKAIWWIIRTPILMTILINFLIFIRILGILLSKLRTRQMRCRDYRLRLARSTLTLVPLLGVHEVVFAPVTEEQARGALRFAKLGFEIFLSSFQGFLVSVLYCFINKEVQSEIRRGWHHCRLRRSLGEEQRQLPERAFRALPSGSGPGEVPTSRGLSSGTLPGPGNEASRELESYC
Description: as §1, §2

EC50 (Human GLP1R)	EC50 (Human GlucR)	EC50 (Human GIPr)	Structure (SMILES)
0.175 nM	0.723 nM	298 nM	CCCCCCCCCCCCCCCC(=O)N[C@@H](CCC(=O)NCCCC[C@H](NC(=O)[C@H](CO)NC(=O)[C@H](CC(=O)O)NC(=O)[C@H](CC(C)C)NC(=O)[C@H](Cc1ccc(O)cc1)NC(=O)[C@H](CCCCN)NC(=O)[C@H](CO)NC(=O)[C@H](Cc1ccc(O)cc1)NC(=O)[C@H](CC(=O)O)NC(=O)[C@H](CO)NC(=O)[C@@H](NC(=O)[C@H](Cc1ccccc1)NC(=O)[C@@H](NC(=O)CNC(=O)[C@H](CCC(=O)O)NC(=O)[C@H](CO)NC(=O)[C@@H](N)Cc1c[nH]cn1)[C@@H](C)O)[C@@H](C)O)C(=O)N[C@@H](CCCNC(=N)N)C(=O)N[C@@H](C)C(=O)N[C@@H](CCC(N)=O)C(=O)N[C@@H](CC(=O)O)C(=O)N[C@@H](Cc1ccccc1)C(=O)N[C@H](C(=O)N[C@@H](CCC(N)=O)C(=O)N[C@@H](Cc1c[nH]c2ccccc12)C(=O)N[C@@H](CC(C)C)C(=O)N[C@@H](CCC(=O)O)C(=O)N[C@@H](C)C(=O)NCC(=O)NCC(N)=O)C(C)C)C(=O)O [g513] (H-HSEGTFTSDYSKYLDSK([γGlu-Palmitoyl])RAQDFVQWLEAGG-NH2; N-terminus assumed)
0.0666 nM	0.00547 nM	124 nM and 82.8 nM	CCCCCCCCCCCCCCCC(=O)N[C@@H](CCC(=O)NCCCC[C@H](NC(=O)[C@H](CO)NC(=O)[C@H](CC(=O)O)NC(=O)[C@H](CC(C)C)NC(=O)[C@H](Cc1ccc(O)cc1)NC(=O)[C@H](CCCCN)NC(=O)[C@H](CO)NC(=O)[C@H](Cc1ccc(O)cc1)NC(=O)[C@H](CC(=O)O)NC(=O)[C@H](CO)NC(=O)[C@@H](NC(=O)[C@H](Cc1ccccc1)NC(=O)[C@@H](NC(=O)CNC(=O)[C@H](CCC(N)=O)NC(=O)[C@H](CO)NC(=O)[C@@H](N)Cc1c[nH]cn1)[C@@H](C)O)[C@@H](C)O)C(=O)N[C@@H](CCCNC(=N)N)C(=O)N[C@@H](C)C(=O)N[C@@H](CCC(N)=O)C(=O)N[C@@H](CC(=O)O)C(=O)N[C@@H](Cc1ccccc1)C(=O)N[C@H](C(=O)N[C@@H](CCC(=O)O)C(=O)N[C@@H](Cc1c[nH]c2ccccc12)C(=O)N[C@@H](CC(C)C)C(=O)N[C@H](C(=O)N[C@@H](C)C(=O)NCC(=O)NCC(N)=O)C(C)C)C(C)C)C(=O)O [g600] (H-HSQGTFTSDYSKYLDSK([γGlu-Palmitoyl])RAQDFVEWLVAGG-NH2; N-terminus assumed)

The next lines start with the molecule.

Structure (SMILES)	EC50 (Human GLP1R)	EC50 (Human GlucR)	EC50 (Human GIPr)
CCCCCCCCCCCCCCCC(=O)N[C@@H](CCC(=O)NCCCC[C@H](NC(=O)[C@H](CO)NC(=O)[C@H](CC(=O)O)NC(=O)[C@H](CC(C)C)NC(=O)[C@H](Cc1ccc(O)cc1)NC(=O)[C@H](CCCCN)NC(=O)[C@H](CO)NC(=O)[C@H](Cc1ccc(O)cc1)NC(=O)[C@H](CC(=O)O)NC(=O)[C@H](CO)NC(=O)[C@@H](NC(=O)[C@H](Cc1ccccc1)NC(=O)[C@@H](NC(=O)CNC(=O)[C@H](CCC(N)=O)NC(=O)C(C)(C)NC(=O)[C@@H](N)Cc1c[nH]cn1)[C@@H](C)O)[C@@H](C)O)C(=O)N[C@@H](CCCNC(=N)N)C(=O)N[C@@H](C)C(=O)N[C@@H](CCC(N)=O)C(=O)N[C@@H](CC(=O)O)C(=O)N[C@@H](Cc1ccccc1)C(=O)N[C@H](C(=O)N[C@@H](CCC(N)=O)C(=O)N[C@@H](Cc1c[nH]c2ccccc12)C(=O)N[C@@H](CC(C)C)C(=O)N[C@H](C(=O)N[C@@H](C)C(=O)NCC(=O)NCC(N)=O)C(C)C)C(C)C)C(=O)O [g384]	0.0272 nM	0.0429 nM	17 nM
CCCCCCCCCCCCCCCC(=O)N[C@@H](CCC(=O)NCCCC[C@H](NC(=O)[C@H](CO)NC(=O)[C@H](CC(=O)O)NC(=O)[C@H](CC(C)C)NC(=O)[C@H](Cc1ccc(O)cc1)NC(=O)[C@H](CCCCN)NC(=O)[C@H](CO)NC(=O)[C@H](Cc1ccc(O)cc1)NC(=O)[C@H](CC(=O)O)NC(=O)[C@H](CO)NC(=O)[C@@H](NC(=O)[C@H](Cc1ccccc1)NC(=O)[C@@H](NC(=O)CNC(=O)[C@H](CCC(N)=O)NC(=O)CNC(=O)[C@@H](N)Cc1c[nH]cn1)[C@@H](C)O)[C@@H](C)O)C(=O)N[C@@H](CCCNC(=N)N)C(=O)N[C@@H](C)C(=O)N[C@@H](CCC(N)=O)C(=O)N[C@@H](CC(=O)O)C(=O)N[C@@H](Cc1ccccc1)C(=O)N[C@H](C(=O)N[C@@H](CCC(N)=O)C(=O)N[C@@H](Cc1c[nH]c2ccccc12)C(=O)N[C@@H](CC(C)C)C(=O)N[C@@H](CCC(=O)O)C(=O)N[C@@H](C)C(=O)NCC(=O)NCC(N)=O)C(C)C)C(=O)O [g512]	0.098 nM	0.0606 nM	407 nM
CCCCCCCCCCCCCCCC(=O)N[C@@H](CCC(=O)NCCCC[C@H](NC(=O)[C@H](CO)NC(=O)[C@H](CC(=O)O)NC(=O)[C@H](CC(C)C)NC(=O)[C@H](Cc1ccc(O)cc1)NC(=O)[C@H](CCCCN)NC(=O)[C@H](CO)NC(=O)[C@H](Cc1ccc(O)cc1)NC(=O)[C@H](CC(=O)O)NC(=O)[C@H](CO)NC(=O)[C@@H](NC(=O)[C@H](Cc1ccccc1)NC(=O)[C@@H](NC(=O)CNC(=O)[C@H](CCC(N)=O)NC(=O)CNC(=O)[C@@H](N)Cc1c[nH]cn1)[C@@H](C)O)[C@@H](C)O)C(=O)N[C@@H](CCCNC(=N)N)C(=O)N[C@@H](C)C(=O)N[C@@H](CCC(N)=O)C(=O)N[C@@H](CC(=O)O)C(=O)N[C@@H](Cc1ccccc1)C(=O)N[C@H](C(=O)N[C@@H](CCC(N)=O)C(=O)N[C@@H](Cc1c[nH]c2ccccc12)C(=O)N[C@@H](CC(C)C)C(=O)N[C@@H](CCC(=O)O)C(=O)N[C@@H](CCCNC(=N)N)C(=O)NCC(=O)NCC(N)=O)C(C)C)C(=O)O [g588]	0.11 nM	0.0723 nM	98 nM
CCCCCCCCCCCCCCCC(=O)NCCCCCC(=O)NCCCC[C@H](NC(=O)[C@H](CO)NC(=O)[C@H](CC(=O)O)NC(=O)[C@H](CC(C)C)NC(=O)[C@H](Cc1ccc(O)cc1)NC(=O)[C@H](CCC(=O)O)NC(=O)[C@H](CO)NC(=O)[C@H](Cc1ccc(O)cc1)NC(=O)[C@H](CC(=O)O)NC(=O)[C@H](CO)NC(=O)[C@@H](NC(=O)[C@H](Cc1ccccc1)NC(=O)[C@@H](NC(=O)CNC(=O)[C@H](CCC(N)=O)NC(=O)[C@H](CO)NC(=O)[C@@H](N)Cc1c[nH]cn1)[C@@H](C)O)[C@@H](C)O)C(=O)N[C@@H](CCCNC(=N)N)C(=O)N[C@@H](C)C(=O)N[C@@H](CCC(N)=O)C(=O)N[C@@H](CC(=O)O)C(=O)N[C@@H](Cc1ccccc1)C(=O)N[C@H](C(=O)N[C@@H](CCC(N)=O)C(=O)N[C@@H](Cc1c[nH]c2ccccc12)C(=O)N[C@@H](CC(C)C)C(=O)N[C@@H](CCC(=O)O)C(=O)N[C@@H](CCCNC(=N)N)C(=O)NCC(=O)NCC(N)=O)C(C)C [g614] (H-HSQGTFTSDYSEYLDSK([Ahx-Palmitoyl])RAQDFVQWLERGG-NH2; N-terminus assumed)	0.00931 nM	0.00365 nM	99.3 nM

— US20200354426A1 (MEDIMMUNE LIMITED, priority 2016, published 2020)
